Tests used:
Assay in all cases: relative viability (nuclei count vs DMSO), 5 days (fraction); higher = more cells survive
[1] = compound: OCc1c[nH]c2ccccc12 [Indole-3-carbinol] + N=C(N)NC(=N)NCCc1ccccc1 [Phenformin] (partner 250 µM)
In short: (§1)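 Values are medians from duplicate plates. Each reflects relative viability, defined as the nuclei count of treated wells over that of vehicle wells. Lung cancer cell lines in 1536-well plates were pin-tool dosed one day after seeding with one drug alone or with a fixed anchor-drug dose plus five library-drug doses (not always all listed) in √10 steps, then fixed, stained and imaged at 4× after 5 days.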

[2] = compound: OCc1c[nH]c2ccccc12 [Indole-3-carbinol] + Nc1ncn([C@H]2C[C@H](O)[C@@H](CO)O2)c(=O)n1 [Decitabine] (partner 2 µM)
In short: as §1

[3] = compound: OCc1c[nH]c2ccccc12 [Indole-3-carbinol] + Cc1cc(Nc2cc(N3CCN(C)CC3)nc(Sc3ccc(NC(=O)C4CC4)cc3)n2)n[nH]1 [Tozasertib] (partner 0.1 µM)
In short: as §1

[4] = compound: OCc1c[nH]c2ccccc12 [Indole-3-carbinol] + Nc1nc2[nH]cc(CCc3ccc(C(=O)N[C@@H](CCC(=O)O)C(=O)O)cc3)c2c(=O)[nH]1 [Pemetrexed] (partner 0.2 µM)
In short: as §1

[5] = compound: OCc1c[nH]c2ccccc12 [Indole-3-carbinol] + CC(=O)c1c(C)c2cnc(Nc3ccc(N4CCNCC4)cn3)nc2n(C2CCCC2)c1=O [Palbociclib] (partner 0.5 µM)
In short: as §1

[6] = compound: OCc1c[nH]c2ccccc12 [Indole-3-carbinol] + COc1cccc2cc(-c3nc([C@H]4CC[C@H](C(=O)O)CC4)n4ncnc(N)c34)[nH]c12 [OSI-027] (partner 0.5 µM)
In short: as §1

[7] = compound: OCc1c[nH]c2ccccc12 [Indole-3-carbinol] + O=C(CCCCCCC(=O)Nc1ccccc1)NO [Vorinostat] (partner 1 µM)
In short: as §1

[8] = compound: OCc1c[nH]c2ccccc12 [Indole-3-carbinol] + NC(=O)Nc1cc(-c2cccc(F)c2)sc1C(=O)N[C@H]1CCCNC1 [AZD7762] (partner 0.2 µM)
In short: as §1

[9] = compound: OCc1c[nH]c2ccccc12 [Indole-3-carbinol] + CCNC(=O)c1noc(-c2cc(C(C)C)c(O)cc2O)c1-c1ccc(CN2CCOCC2)cc1 [Luminespib] (partner 0.01 µM)
In short: as §1

[10] = compound: OCc1c[nH]c2ccccc12 [Indole-3-carbinol] + Cc1nc(Nc2ncc(C(=O)Nc3c(C)cccc3Cl)s2)cc(N2CCN(CCO)CC2)n1 [Dasatinib] (partner 0.075 µM)
In short: as §1

[11] = compound: OCc1c[nH]c2ccccc12 [Indole-3-carbinol] + CC(=O)Nc1cccc(-n2c(=O)n(C3CC3)c(=O)c3c(Nc4ccc(I)cc4F)n(C)c(=O)c(C)c32)c1 [Trametinib] (partner 0.02 µM)
In short: as §1

[12] = compound: OCc1c[nH]c2ccccc12 [Indole-3-carbinol] + O=C(c1cc(Cc2n[nH]c(=O)c3ccccc23)ccc1F)N1CCN(C(=O)C2CC2)CC1 [Olaparib] (partner 8 µM)
In short: as §1

Indole-3-carbinol = compound: OCc1c[nH]c2ccccc12 [Indole-3-carbinol]
In short: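 A plate was accepted only when its control CV was below 25% and the cells had doubled at least once. Viability is defined from nuclear counts as treated wells divided by vehicle wells, with the median taken across plates. That median covers lung cancer cell lines grown in 1536-well plates, dosed by pinning at five √10-spaced library-drug concentrations, and counted in MetaXpress from 4× Hoechst images after 5 days.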

[13] = compound: OCc1c[nH]c2ccccc12 [Indole-3-carbinol] + CS(=O)(=O)CCNCc1ccc(-c2ccc3ncnc(Nc4ccc(OCc5cccc(F)c5)c(Cl)c4)c3c2)o1 [Lapatinib] (partner 2 µM)
In short: as §1

[14] = compound: OCc1c[nH]c2ccccc12 [Indole-3-carbinol] + Cc1nc(NC(=O)N2CCC[C@H]2C(N)=O)sc1-c1ccnc(C(C)(C)C(F)(F)F)c1 [Alpelisib] (partner 2 µM)
In short: as §1

[15] = compound: OCc1c[nH]c2ccccc12 [Indole-3-carbinol] + CC1(C)CCC(c2ccc(Cl)cc2)=C(CN2CCN(c3ccc(C(=O)NS(=O)(=O)c4ccc(N[C@H](CCN5CCOCC5)CSc5ccccc5)c(S(=O)(=O)C(F)(F)F)c4)cc3)CC2)C1 [Navitoclax] (partner 0.5 µM)
In short: as §1

[16] = compound: OCc1c[nH]c2ccccc12 [Indole-3-carbinol] + CC(C)C[C@H](NC(=O)[C@H](Cc1ccccc1)NC(=O)c1cnccn1)B(O)O [Bortezomib] (partner 0.002 µM)
In short: as §1

[17] = compound: OCc1c[nH]c2ccccc12 [Indole-3-carbinol] + C[C@]1(O)C[C@@H](c2nc(-c3ccc4ccc(-c5ccccc5)nc4c3)c3c(N)nccn32)C1 [Linsitinib] (partner 1 µM)
In short: as §1

[18] = compound: OCc1c[nH]c2ccccc12 [Indole-3-carbinol] + C[C@@H](Oc1cc(-c2cnn(C3CCNCC3)c2)cnc1N)c1c(Cl)ccc(F)c1Cl [Crizotinib] (partner 1 µM)
In short: as §1

[19] = compound: OCc1c[nH]c2ccccc12 [Indole-3-carbinol] + CS(=O)(=O)N1CCN(Cc2cc3nc(-c4cccc5[nH]ncc45)nc(N4CCOCC4)c3s2)CC1 [Pictilisib] (partner 1 µM)
In short: as §1

[20] = compound: OCc1c[nH]c2ccccc12 [Indole-3-carbinol] + COc1cc2c(Oc3ccc(NC(=O)C4(C(=O)Nc5ccc(F)cc5)CC4)cc3F)ccnc2cc1OCCCN1CCOCC1 [Foretinib] (partner 0.25 µM)
In short: as §1

Question: Which relative viability ([1]; first compound 0.253 µM) does the source give for NCI-H522 here?
Answer: 0.621

Question: What about the relative viability ([1]; first compound 0.8 µM) of the same cell line?
Answer: 0.661

Question: And the relative viability ([1]; first compound 2.53 µM)?
Answer: 0.724

Question: What about the relative viability ([1]; first compound 8 µM) of the same cell line?
Answer: 0.671

Question: What about the relative viability ([2]; first compound 0.253 µM) of the same cell line?
Answer: 0.698

Question: What about the relative viability ([2]; first compound 0.8 µM) of the same cell line?
Answer: 0.699

Question: And the relative viability ([2]; first compound 2.53 µM)?
Answer: 0.803

Question: What about the relative viability ([2]; first compound 8 µM) of the same cell line?
Answer: 0.689

Question: What about the relative viability ([3]; first compound 0.253 µM) of the same cell line?
Answer: 0.63

Question: And the relative viability ([3]; first compound 0.8 µM)?
Answer: 0.525

Question: And the relative viability ([3]; first compound 2.53 µM)?
Answer: 0.567

Question: What about the relative viability ([3]; first compound 8 µM) of the same cell line?
Answer: 0.538

Question: And the relative viability ([4]; first compound 0.253 µM)?
Answer: 0.979

Question: What about the relative viability ([4]; first compound 0.8 µM) of the same cell line?
Answer: 1.12

Question: And the relative viability ([4]; first compound 2.53 µM)?
Answer: 1.08

Question: And the relative viability ([4]; first compound 8 µM)?
Answer: 1.04

Question: What about the relative viability ([5]; first compound 0.253 µM) of the same cell line?
Answer: 0.87

Question: And the relative viability ([5]; first compound 0.8 µM)?
Answer: 1.02

Question: And the relative viability ([5]; first compound 2.53 µM)?
Answer: 1.31

Question: What about the relative viability ([5]; first compound 8 µM) of the same cell line?
Answer: 1.15

Question: And the relative viability ([6]; first compound 0.253 µM)?
Answer: 0.646

Question: What about the relative viability ([6]; first compound 0.8 µM) of the same cell line?
Answer: 0.821

Question: What about the relative viability ([6]; first compound 2.53 µM) of the same cell line?
Answer: 0.685

Question: What about the relative viability ([6]; first compound 8 µM) of the same cell line?
Answer: 0.836

Question: What about the relative viability ([7]; first compound 0.253 µM) of the same cell line?
Answer: 1.1

Question: And the relative viability ([7]; first compound 0.8 µM)?
Answer: 0.694

Question: And the relative viability ([7]; first compound 2.53 µM)?
Answer: 0.808

Question: What about the relative viability ([7]; first compound 8 µM) of the same cell line?
Answer: 0.95

Question: What about the relative viability ([8]; first compound 0.253 µM) of the same cell line?
Answer: 0.78

Question: And the relative viability ([8]; first compound 0.8 µM)?
Answer: 0.92

Question: And the relative viability ([8]; first compound 2.53 µM)?
Answer: 0.956

Question: And the relative viability ([8]; first compound 8 µM)?
Answer: 0.912

Question: What about the relative viability ([9]; first compound 0.253 µM) of the same cell line?
Answer: 1.17

Question: And the relative viability ([9]; first compound 0.8 µM)?
Answer: 1.05

Question: What about the relative viability ([9]; first compound 2.53 µM) of the same cell line?
Answer: 1.1

Question: What about the relative viability ([9]; first compound 8 µM) of the same cell line?
Answer: 0.949

Question: What about the relative viability ([10]; first compound 0.253 µM) of the same cell line?
Answer: 0.806

Question: And the relative viability ([10]; first compound 0.8 µM)?
Answer: 0.961

Question: And the relative viability ([10]; first compound 2.53 µM)?
Answer: 0.818

Question: What about the relative viability ([10]; first compound 8 µM) of the same cell line?
Answer: 0.796

Question: And the relative viability ([11]; first compound 0.253 µM)?
Answer: 0.794

Question: What about the relative viability ([11]; first compound 0.8 µM) of the same cell line?
Answer: 0.798

Question: And the relative viability ([11]; first compound 2.53 µM)?
Answer: 0.839

Question: And the relative viability ([11]; first compound 8 µM)?
Answer: 0.749

Question: What about the relative viability ([12]; first compound 0.253 µM) of the same cell line?
Answer: 0.657

Question: And the relative viability ([12]; first compound 0.8 µM)?
Answer: 0.564

Question: What about the relative viability ([12]; first compound 2.53 µM) of the same cell line?
Answer: 0.663

Question: And the relative viability ([12]; first compound 8 µM)?
Answer: 0.608

Question: What about the relative viability (Indole-3-carbinol; 0.253 µM) of the same cell line?
Answer: 1.01

Question: What about the relative viability (Indole-3-carbinol; 0.8 µM) of the same cell line?
Answer: 0.855

Question: What about the relative viability (Indole-3-carbinol; 2.53 µM) of the same cell line?
Answer: 0.931

Question: And the relative viability (Indole-3-carbinol; 8 µM)?
Answer: 0.976

Question: What does the source list for NCI-H1299?
Answer: relative viability ([13]; first compound 0.253 µM): 0.892; relative viability ([13]; first compound 0.8 µM): 0.997; relative viability ([13]; first compound 2.53 µM): 0.925; relative viability ([13]; first compound 8 µM): 0.945; relative viability ([14]; first compound 0.253 µM): 1.05; relative viability ([14]; first compound 0.8 µM): 1.11; relative viability ([14]; first compound 2.53 µM): 1.11; relative viability ([14]; first compound 8 µM): 1.01; relative viability ([15]; first compound 0.253 µM): 1.01; relative viability ([15]; first compound 0.8 µM): 1.05; relative viability ([15]; first compound 2.53 µM): 1.03; relative viability ([15]; first compound 8 µM): 1.02; relative viability ([16]; first compound 0.253 µM): 0.977; relative viability ([16]; first compound 0.8 µM): 1.02; relative viability ([16]; first compound 2.53 µM): 1.01; relative viability ([16]; first compound 8 µM): 1.03; relative viability ([17]; first compound 0.253 µM): 0.986; relative viability ([17]; first compound 0.8 µM): 1; relative viability ([17]; first compound 2.53 µM): 1.02; relative viability ([17]; first compound 8 µM): 0.869; relative viability ([18]; first compound 0.253 µM): 0.924; relative viability ([18]; first compound 0.8 µM): 1; relative viability ([18]; first compound 2.53 µM): 0.952; relative viability ([18]; first compound 8 µM): 0.906; relative viability ([19]; first compound 0.253 µM): 0.795; relative viability ([19]; first compound 0.8 µM): 0.879; relative viability ([19]; first compound 2.53 µM): 0.691; relative viability ([19]; first compound 8 µM): 0.761; relative viability ([20]; first compound 0.253 µM): 1.07; relative viability ([20]; first compound 0.8 µM): 1.07; relative viability ([20]; first compound 2.53 µM): 1.14; relative viability ([20]; first compound 8 µM): 1.04; relative viability ([12]; first compound 0.253 µM): 0.907; relative viability ([12]; first compound 0.8 µM): 0.995; relative viability ([12]; first compound 2.53 µM): 0.954; relative viability ([12]; first compound 8 µM): 0.952; relative viability (Indole-3-carbinol; 0.253 µM): 1.02; relative viability (Indole-3-carbinol; 0.8 µM): 1.04; relative viability (Indole-3-carbinol; 2.53 µM): 0.999; relative viability (Indole-3-carbinol; 8 µM): 0.989
